{"source": "patent US20030004177A1", "about": "“Abuse-resistant opioid dosage form” (Endo Pharmaceuticals, Inc., priority 2001, published 2003)", "origin": "cited, not measured here", "key": {"[1]": {"test_system": "opioid effect", "details": "injection or intranasal administration"}}, "note": "Where two headings read alike, the source gives them in different places.", "data": [{"smiles": "C=CCN1CC[C@]23c4c5ccc(O)c4O[C@H]2C(=O)CC[C@@]3(O)[C@H]1C5", "note": "[naloxone]", "values": [{"measurement": "amount needed to antagonize the opioid effect, to induce abstinence in dependent individuals, and to prevent abuse", "setting": "[1]", "result": "0.2 to 0.4", "unit": "mg"}, {"measurement": "bioavailability", "setting": "administered orally", "result": "very low"}, {"measurement": "bioavailability", "setting": "administered parenterally", "result": "high"}]}]}
